# “And” between values parts separate entries of the source, which are not always exact repeats. Equal entries are not always repeated. Structures can show the parent of a compound that is named as a salt.
# Legend:
# [1] = tested on: mitochondria of Th9 cells; assay: Flow cytometry with MitoTracker Deep Red (Figure 4M, 5L, 7F, 7J); format: cell-based, mouse; conditions: for mitochondrial membrane potential measured by MitoTracker staining: Figure 7F; for mitochondrial membrane potential measured by MitoTracker staining / Mito tracker (flow cytometric quantification): (n = 3); for Mito tracker (flow cytometric quantification): Figure 5L; for mitochondrial membrane potential in Th9 cells: Figure 7J, one per column (n = 4)
# Method: […] Cells were incubated with the respective dyes, washed, and subjected to flow cytometry or fluorescence microscopy analysis. For ultrastructural assessment, mitochondrial number and diameter were quantified from high-resolution transmission electron microscopy (TEM) images using ImageJ software.
# [2] = Body weight after ACT (S1A); format: in vivo, mouse; conditions: EpA-Th9 therapy vs control; result in words
# Method: (§1) C57BL/6 mice were subcutaneously injected with 5 × 10^5 B16-OVA melanoma cells. Five days after tumor implantation, mice received an intravenous infusion of 2 × 10^6 in vitro–differentiated Th9 cells (cultured for 5 days), which were derived from OT-II CD45.1 donor mice, accompanied by 4 × 10^5 OVA peptide–pulsed DCs via the tail vein. To enhance T cell engraftment and facilitate lymphodepletion, a single intraperitoneal injection of cyclophosphamide (200 mg/kg, Sigma, catalog C0768) was administered 1 day prior to T cell transfer. Mice were euthanized at designated time points for the collection and analysis of spleens, tumor-draining lymph nodes, and tumor tissues.
# Days after ACT Days after ACT
# Figure S1. EpA enhances immune responses.
# (A) Body weight of mice after ACT in PBS, control, and EpA-treated groups. (B) Serum IL-6 levels after ACT, measured by ELISA on days 5, 10, 15, and 20. (C–E) Representative flow-cytometric plots showing transferred CD45.1⁺ OT-II Th9 cells in spleens (C), tumor-draining lymph nodes (LNs) (D), and tumors (E); frequencies Figure S1 and absolute numbers of CD45.1⁺ OT-II Th9 cells in LNs are quantified in (D). (F–
# I) Representative flow-cytometric plots of endogenous CD4⁺ and CD8⁺ T cells in spleens (F), LNs (G), and tumors (H); frequencies and absolute numbers of endogenous CD4⁺ (G) and CD8⁺ (I) T cells in LNs are quantified. […]
# [3] = tested on: Th9 cells; assay: Seahorse oxygen consumption rate, mitochondrial stress test (Figure 4F-H); format: cell-based, mouse
# Method: After stimulation, cells were washed, resuspended in Seahorse XF assay medium (Agilent Technologies; pH 7.40–7.45, catalog 103576-100) and seeded at 5 × 10^5 cells per well in Seahorse XF96 microplates. Plates were centrifuged at 400 × g for 5 minutes to promote adherence and monolayer formation, and all conditions were tested in quadruplicate.
# Oxidative phosphorylation was assessed on the same instrument using the XFe96 Mitochondrial Stress Test Kit (Agilent Technologies, catalog 103015-100). Oligomycin (1.5 μM), FCCP (0.5 μM), and rotenone plus antimycin A (0.5 μM each) were injected sequentially to measure OCR as a proxy for oxidative phosphorylation. The mitochondrial stress response was derived from OCR values obtained before and after each injection.
# [4] = tested on: PD-1 on T cells; assay: PD-1 expression on donor Th9 and endogenous CD8+/CD4+ T cells from spleens (S4J-L); format: in vivo, mouse; conditions: for Expression of PD-1 of transferred CD45.1⁺ OT-II Th9 cells in spleen: Supplemental Figure 4J; for Expression of PD-1 of endogenous CD8⁺ T cells in spleen: Supplemental Figure 4K; for Expression of PD-1 of endogenous CD4⁺ T cells in spleen: Supplemental Figure 4L
# Method: as §1
# Details regarding staining panels (human and mouse), reagents (including clones and catalog numbers), acquisition settings, compensation/controls, and analysis procedures are provided in Supplemental Methods.
# CD45.1+ T Cells in Tumors
# CtrlEpA Ctrl EpA GzmB Ctrl EpA
# CtrlEpA CtrlEpA GzmB Ctrl EpA
# J CD45.1+ T Cells in Spleens K CD8+ T Cells in Spleens L CD4+ T Cells in Spleens […]
# PD-1 0 CtrlEpA PD-1 0 CtrlEpA PD-1 0 CtrlEpA […]
# cells and endogenous T cells.
# (A–C) Mean fluorescence intensity (MFI) of IFN-γ (A) and TNF-α (B), and representative flow-cytometric plots with quantification of Granzyme B⁺ Perforin⁺ cells (C) among adoptively transferred CD45.1⁺ Th9 cells in tumors. (D–F) MFI of IFN-γ (D) and TNF-α (E), and representative plots with quantification of Granzyme B⁺ Perforin⁺ cells (F) among tumor-infiltrating CD8⁺ T cells. (G–I) MFI of IFN-γ (G) and TNF-α (H), and representative plots with quantification of Granzyme B⁺ Perforin⁺ cells (I) among tumor-infiltrating CD4⁺ T cells. (J–L) PD-1 expression in adoptively transferred CD45.1⁺ Th9 cells (J), endogenous CD8⁺ T cells (K), and endogenous CD4⁺ T cells (L) from spleens of tumor-bearing mice. Data in (A–L) are shown as mean ± SEM from n = 4 mice per group. Statistical analysis was performed using two-tailed unpaired Student’s t-test (A–L). ns, not significant. *p < 0.05, **p […]
# (also on this page, place not known: IFN -γ MFIofTNF-α CtrlEpACtrlEpA MFIofIFN-γ 1500MFIofTNF-α MFIofIFN-γ 800MFIofTNF-α CtrlEpA0 CtrlEpA0 CtrlEpA0 MFI of (×103Ď CtrlEpA0 MFI of PD-1 (×103) MFI of PD-1 (×103) CtrlEpAPD-1 HG FE GzmB+ PRF1+ of CD45.1+ cells (%) GzmB+ PRF1+ of CD8+ cells (%) GzmB+ PRF1+ of CD4+ cells (%) PRF1 PRF1 PRF1 0.3887.5 MFIofIFN-γ) […]
# [5] = single agent, individual replicates
molecule,measurement,setting,value
"CCCc1cc(-c2nc(-c3ccc(C)cc3)cs2)ccn1 [fatostatin, fatostatin hydrobromide, reference compound]",mitochondrial membrane potential measured by MitoTracker staining,[1]; [5],1160 and 1151 and 1173
anteiso-C15 Leu7 surfactin [EpA],body weight,[2],No significant differences
same,MitoTracker Deep Red,"[1]; Figure 4M, individual replicates, (n = 5)",2580000 and 2400000 and 2450000 and 2490000 and 2480000
same,Mito tracker (flow cytometric quantification),"[1]; EpA + ERKin combination, individual replicates",2055 and 2045 and 2104
same,Mito tracker (flow cytometric quantification),"[1]; EpA + MEKin combination, individual replicates",2331 and 2453 and 2355
same,Mito tracker (flow cytometric quantification),[1]; [5],1845 and 1728 and 1865
same,mitochondrial membrane potential measured by MitoTracker staining,"[1]; EpA + Fato combination, individual replicates",1707 and 1737 and 1699
same,mitochondrial membrane potential measured by MitoTracker staining,[1]; [5],1400 and 1434 and 1409
same,mitochondrial membrane potential in Th9 cells,"[1]; MigR1 vector, individual replicates",5844 and 5817 and 5963 and 6149
same,mitochondrial membrane potential in Th9 cells,"[1]; Srebf1 (overexpressing SREBP1), individual replicates",5503 and 5279 and 5218 and 5340
same,mitochondrial membrane potential,"[1]; MEK/ERK inhibition in EpA-treated Th9 cells, MitoTracker, result in words",paradoxical increase in mitochondrial membrane potential
same,mitochondrial membrane potential,"[1]; SREBP1 inhibition (fatostatin) in EpA-Th9, result in words",further augmented
same,EpA-induced mitochondrial membrane potential upon SREBP1 overexpression,[1]; result in words,abolished
same,mitochondrial integrity,[1]; result in words,improved mitochondrial integrity
same,"OCR, basal and maximal respiration","[3]; EpA 10 μM, 4 days, result in words",higher basal and maximal respiration
same,Basal Oxygen Consumption Rate,"[3]; Figure 4G, individual replicates, (n = 5), in pmol/min (unit assumed)",169.53 and 169.91 and 173.53 and 152.33 and 158.62
same,Max Oxygen Consumption Rate,"[3]; Figure 4H, individual replicates, (n = 5), in pmol/min (unit assumed)",295.4 and 261.85 and 290.65 and 188.88 and 233.85
same,PD-1 expression,"[4]; donor Th9 and endogenous T cells, result in words",comparable between groups
same,Expression of PD-1 of transferred CD45.1⁺ OT-II Th9 cells in spleen,[4]; replicate 1,5868
same,Expression of PD-1 of transferred CD45.1⁺ OT-II Th9 cells in spleen,[4]; replicate 2,7923
same,Expression of PD-1 of transferred CD45.1⁺ OT-II Th9 cells in spleen,[4]; replicate 3,10955
same,Expression of PD-1 of transferred CD45.1⁺ OT-II Th9 cells in spleen,[4]; replicate 4,4100
same,Expression of PD-1 of endogenous CD8⁺ T cells in spleen,[4]; replicate 1,1931
same,Expression of PD-1 of endogenous CD8⁺ T cells in spleen,[4]; replicate 2,1939
same,Expression of PD-1 of endogenous CD8⁺ T cells in spleen,[4]; replicate 3,2374
same,Expression of PD-1 of endogenous CD8⁺ T cells in spleen,[4]; replicate 4,1655
same,Expression of PD-1 of endogenous CD4⁺ T cells in spleen,[4]; replicate 1,6299
same,Expression of PD-1 of endogenous CD4⁺ T cells in spleen,[4]; replicate 2,5672
same,Expression of PD-1 of endogenous CD4⁺ T cells in spleen,[4]; replicate 3,6004
same,Expression of PD-1 of endogenous CD4⁺ T cells in spleen,[4]; replicate 4,4982

# Source: publication PMC12867150, “A fungi-derived cyclic peptide enhances Th9-mediated antitumor immunity by targeting ZAP70 and SREBP1” (The Journal of Clinical Investigation, 2025)
